This note sets out measurements from US10105367B2, “Therapeutic thiophene-, furan-, and pyridine-fused azolopyrimidin-5-(6h)-ones” (Dart Neuroscience (Cayman) Ltd., priority 2012, dated 2018).

The target in the first test is human PDE1B (Homo sapiens (Human), UniProt Q01064). The test can be described thus: PDE1B inhibitory assay (IMAP TR-FRET). Particulars: PDE1B pIC50, negative log of half-maximal molar inhibitory concentration; 200 nM FAM-cAMP, Calmodulin, CaCl2.
Experimental: PDE1B inhibition was determined by an IMAP TR-FRET assay.
After a brief centrifugation, the plates were incubated for 30 minutes at room temperature. The assay was terminated by adding 5 μL IMAP binding reagent/Tb complex (Molecular Devices, Sunnyvale, Calif.) to each well.
Plates were incubated 1 hour at room temperature and read on a Viewlux multimode plate reader (Perkin Elmer). The instrument was set to excite using the DUG11 filter and measure using 490/10 nm and 520/10 nm filters. Ratios of acceptor and donor were then calculated.
For IC50 calculations, the values of % efficacy versus a series of compound concentrations were then plotted using non-linear regression analysis of sigmoidal dose-response curves generated with the equation Y=B+(T−B)/1+10((Log EC50−X)×Hill Slope), where Y=percent activity, B=minimum percent efficacy, T=maximum percent efficacy, X=logarithm of compound and Hill Slope=slope factor or Hill coefficient. The IC50 value was determined by the concentration causing a half-maximal percent efficacy.
Consider `COc1ccc(Cn2c(=O)n3ncnc3c3c(C)c(Br)sc32)cc1` [Example 76, 8-Bromo-6-(4-methoxybenzyl)-9-methylthieno[3,2-e][1,2,4]triazolo[1,5-c]pyrimidin-5(6H)-one], for which the IC50 was in the range of 100 to 1000 nM.
In the case of `COc1ccc(Cn2c(=O)n3ncnc3c3c(C)c(CO)sc32)cc1` [Example 77, 8-(Hydroxymethyl)-6-(4-methoxybenzyl)-9-methylthieno[3,2-e][1,2,4]triazolo[1,5-c]pyrimidin-5(6H)-one], the IC50 fell in the range of 100 to 1000 nM.
Turning to `COc1ccc(Cn2c(=O)n3ncnc3c3c(CN4C[C@@H](C)O[C@@H](C)C4)csc32)cc1` [Example 78, 9-(((2S,6R)-2,6-Dimethylmorpholino)methyl)-6-(4-methoxybenzyl)thieno[3,2-e][1,2,4]triazolo[1,5-c]pyrimidin-5(6H)-one], the IC50 was 100 to 1000 nM.
For the compound `Cc1oc2c(c1C)c1ncnn1c(=O)n2Cc1ccc(Cl)cc1` [Example 79, 6-(4-Chlorobenzyl)-8,9-dimethylfuro[3,2-e][1,2,4]triazolo[1,5-c]pyrimidin-5(6H)-one], the IC50 is 100 to 1000 nM.
Same read-out and setting: as for `O=c1n(Cc2ccccc2Cl)c2sc3c(c2c2ncnn12)CCCC3` [Example 81], the figure is 1000 to 10000 nM.
`CC1(C)Cc2c(sc3c2c2ncnn2c(=O)n3Cc2ccc(Cl)cc2)CO1` [Example 83] had an IC50 of 100 to 1000 nM.
Same read-out and setting: the figure for `O=c1n(Cc2ccccc2)c2sc3c(c2c2ncnn12)CCCC3` [Example 84] is 100 to 1000 nM; for `O=c1n(Cc2cccc(Cl)c2)c2sc3c(c2c2ncnn12)CCCC3` [Example 85] it is 100 to 1000 nM.
Compound `O=c1n(Cc2ccc(-c3ccccc3)cc2)c2sc3c(c2c2ncnn12)CCCC3` [Example 86] came in with an IC50 of 1000 to 10000 nM.
Same read-out and setting: as for `O=c1n(Cc2ccc(Cl)cc2)c2sc3c(c2c2ncnn12)CCOC3` [Example 87], the figure is 100 to 1000 nM.
Same read-out and setting: as for `Cc1ccc(Cn2c(=O)n3ncnc3c3c4c(sc32)COCC4)cc1` [Example 88], the figure is 100 to 1000 nM; as for `O=c1n(Cc2ccc(C(F)(F)F)cc2)c2sc3c(c2c2ncnn12)CCOC3` [Example 89], 1000 to 10000 nM.
In turn, `O=c1n(Cc2ccc(Cl)c(Cl)c2)c2sc3c(c2c2ncnn12)CCOC3` [Example 91] showed an IC50 of 100 to 1000 nM.
On to `O=c1n(Cc2ccc(F)cc2)c2sc3c(c2c2ncnn12)CCOC3` [Example 92], for which the IC50 lay in the range of 1000 to 10000 nM.
Still for that read-out and setting: as for `O=c1n(Cc2ccc(Cl)c(F)c2)c2sc3c(c2c2ncnn12)CCOC3` [Example 93], the figure is 100 to 1000 nM; as for `O=c1n(Cc2ccc(Cl)cc2F)c2sc3c(c2c2ncnn12)CCOC3` [Example 94], 100 to 1000 nM.
For `COc1ccc(Cn2c(=O)n3ncnc3c3c4c(sc32)COCC4)cc1F` [Example 95], the IC50 lay within 100 to 1000 nM.
With `O=c1n(Cc2ccc(OC(F)(F)F)cc2)c2sc3c(c2c2ncnn12)CCOC3` [Example 96], the IC50 is 1000 to 10000 nM.
`CCOc1ccc(Cn2c(=O)n3ncnc3c3c4c(sc32)COCC4)cc1` [Example 97]: the IC50 lay in the range of 1000 to 10000 nM.
`O=c1n(Cc2ccc(Cl)cc2)c2sc3c(c2c2ncnn12)CCNC3` [Example 99, 6-(4-Chlorobenzyl)-8,9,10,11-tetrahydropyrido[4′,3′:4,5]thieno[3,2-e][1,2,4]triazolo[1,5-c]pyrimidin-5(6H)-one] returned a concentration for half-maximal inhibition (IC50) of 1000 to 10000 nM.
`COc1ccc(Cn2c(=O)n3ncnc3c3c4c(sc32)NCCC4)cc1OC` [Example 100] showed an IC50 of 1000 to 10000 nM.
Still for that read-out and setting: as for `O=c1n(Cc2ccc(Cl)cc2)c2sc3c(c2c2ncnn12)CCN(CC(F)(F)F)C3` [Example 107], the figure is 100 to 1000 nM; as for `COc1ccc(Cn2c(=O)n3ncnc3c3c4c(sc32)CN(Cc2ccc3c(c2)OC(F)(F)O3)CC4)cc1` [Example 114], 100 to 1000 nM.
Still for that read-out and setting: the figure for `COc1ccc(Cn2c(=O)n3ncnc3c3c4c(sc32)CN(C2CS(=O)(=O)C2)CC4)cc1` [Example 124] is 100 to 1000 nM.

The same test, now with this note: negative log of half-maximal molar inhibitory concentration; 200 nM FAM-cAMP, Calmodulin, CaCl2.
Regarding `COc1ccc(Cn2c(=O)n3ncnc3c3c(C)c(CN4CCN(C)C(C)(C)C4)sc32)cc1` [Example 74], the “PDE1B pIC50” value is given as more than 7.
Take `COc1ccc(Cn2c(=O)n3ncnc3c3c(C)c(CN4CCN5CCC[C@H]5C4)sc32)cc1` [Example 75]: the “PDE1B pIC50” value was more than 7.
Take `COc1ccc(Cn2c(=O)n3ncnc3c3c4c(sc32)CN(C(=O)OC(C)(C)C)CC4)cc1` [Example 80, tert-Butyl 6-(4-methoxybenzyl)-5-oxo-5,6,10,11-tetrahydropyrido[4′,3′:4,5]thieno[3,2-e][1,2,4]triazolo[1,5-c]pyrimidine-9(8H)-carboxylate]: the “PDE1B pIC50” value is on record as more than 7.
With `COc1ccc(Cn2c(=O)n3ncnc3c3c4c(sc32)COCC4)cc1` [Example 90], the “PDE1B pIC50” value is given as more than 7.
As to `COc1c(F)cc(Cn2c(=O)n3ncnc3c3c4c(sc32)COCC4)cc1F` [Example 98], the “PDE1B pIC50” value is given as less than 5.
On the same count and under the same terms, as for `COc1ccc(Cn2c(=O)n3ncnc3c3c4c(sc32)CN(Cc2nnc(C)s2)CC4)cc1` [Example 108], the figure is more than 7.
Consider `COc1ccc(Cn2c(=O)n3ncnc3c3c4c(sc32)CN(CC2CC2)CC4)cc1` [Example 110], for which the “PDE1B pIC50” value is listed as more than 7.
For the compound `COc1ccc(Cn2c(=O)n3ncnc3c3c4c(sc32)CN(CC2(C)COC2)CC4)cc1` [Example 111], the “PDE1B pIC50” value was more than 7.
In the case of `COc1ccc(Cn2c(=O)n3ncnc3c3c4c(sc32)CN(CCCSC)CC4)cc1` [Example 112], the “PDE1B pIC50” value was more than 7.
On the same count and under the same terms, the figure for `COc1ccc(Cn2c(=O)n3ncnc3c3c4c(sc32)CN(CC2CCOC2)CC4)cc1` (centres unmarked) [Example 113] is more than 7; for `COc1ccc(Cn2c(=O)n3ncnc3c3c4c(sc32)CN(CC(C)(C)C)CC4)cc1` [Example 115] it is more than 7.
Take `COc1ccc(Cn2c(=O)n3ncnc3c3c4c(sc32)CN(Cc2ncccn2)CC4)cc1` [Example 116]: the “PDE1B pIC50” value is reported as more than 7.
For the compound `COc1ccc(Cn2c(=O)n3ncnc3c3c4c(sc32)CN(CC2CCCCO2)CC4)cc1` (centres unmarked) [Example 117], the “PDE1B pIC50” value is reported as more than 7.
Same read-out and setting: as for `COc1ccc(Cn2c(=O)n3ncnc3c3c4c(sc32)CN(CCCS(C)(=O)=O)CC4)cc1` [Example 118], the figure is more than 7.
Turning to `COc1ccc(Cn2c(=O)n3ncnc3c3c4c(sc32)CN(Cc2ccncn2)CC4)cc1` [Example 119], the “PDE1B pIC50” value is recorded as more than 7.
On the same count and under the same terms, as for `COc1ccc(Cn2c(=O)n3ncnc3c3c4c(sc32)CN(Cc2ccccn2)CC4)cc1` [Example 120], the figure is more than 7.
Regarding `COc1ccc(Cn2c(=O)n3ncnc3c3c4c(sc32)CN(Cc2ccncc2)CC4)cc1` [Example 121], the “PDE1B pIC50” value is more than 7.
Turning to `COc1ccc(Cn2c(=O)n3ncnc3c3c4c(sc32)CN(Cc2nccn2C)CC4)cc1` [Example 122], the “PDE1B pIC50” value is more than 7.
Still for that read-out and setting: as for `COc1ccc(Cn2c(=O)n3ncnc3c3c4c(sc32)CN(Cc2scnc2C)CC4)cc1` [Example 123], the figure is more than 7; as for `COc1ccc(Cn2c(=O)n3ncnc3c3c4c(sc32)CN(CC2COCCO2)CC4)cc1` (centres unmarked) [Example 125], more than 7.
Take `COc1ccc(Cn2c(=O)n3ncnc3c3c4c(sc32)CN(CC2CCC(=O)O2)CC4)cc1` (centres unmarked) [Example 126]: the “PDE1B pIC50” value is on record as more than 7.
In the case of `COc1ccc(Cn2c(=O)n3ncnc3c3c4c(sc32)CN(Cc2ccc(F)cc2)CC4)cc1` [Example 127], the “PDE1B pIC50” value is reported as more than 7.
The same measure, in the same setting: as for `COc1ccc(Cn2c(=O)n3ncnc3c3c4c(sc32)CN(Cc2ccccc2F)CC4)cc1` [Example 128], the figure is more than 7.
On to `O=c1n(Cc2ccc(Cl)cc2F)c2sc3c(c2c2ncnn12)CCN(Cc1ccccn1)C3` [Example 130], for which the “PDE1B pIC50” value is given as more than 7.
With `Cn1ccnc1CN1CCc2c(sc3c2c2ncnn2c(=O)n3Cc2ccc(Cl)cc2F)C1` [Example 131], the “PDE1B pIC50” value is given as more than 7.
On the same count and under the same terms, as for `O=c1n(Cc2ccc(Cl)cc2F)c2sc3c(c2c2ncnn12)CCN(Cc1ncccn1)C3` [Example 132], the figure is more than 7.
Take `COc1ccc(Cn2c(=O)n3ncnc3c3c4c(sc32)CN(CC2CCCOC2)CC4)cc1` (centres unmarked) [Example 134]: the “PDE1B pIC50” value is listed as more than 7.
Same read-out and setting: as for `COc1ccc(Cn2c(=O)n3ncnc3c3c4c(sc32)CN(CC2CCCOC2)CC4(F)F)cc1` (centres unmarked) [Example 136], the figure is more than 7.
With `COc1ccc(Cn2c(=O)n3ncnc3c3c4c(sc32)CN(Cc2ncccn2)CC4)c(F)c1` [Example 137], the “PDE1B pIC50” value is listed as more than 7.
The same measure, in the same setting: the figure for `COc1ccc(Cn2c(=O)n3ncnc3c3c4c(sc32)CN(Cc2nccn2C)CC4)c(F)c1` [Example 138] is more than 7.
In the case of `COc1ccc(Cn2c(=O)n3ncnc3c3c4c(sc32)CN(Cc2ccccn2)CC4)c(F)c1` [Example 139], the “PDE1B pIC50” value is recorded as more than 7.
As to `COc1ccc(Cn2c(=O)n3ncnc3c3c4c(sc32)CN(CC2CCOC2)CC4)c(F)c1` (centres unmarked) [Example 140], the “PDE1B pIC50” value is more than 7.
As for `COc1ccc(Cn2c(=O)n3ncnc3c3c4c(sc32)CN(CC2CCCOC2)CC4)c(F)c1` (centres unmarked) [Example 142], the “PDE1B pIC50” value was more than 7.
On to `COc1ccc(Cn2c(=O)n3ncnc3c3c4c(sc32)CN(CC2CCOC2)CCC4)cc1` (centres unmarked) [Example 143], for which the “PDE1B pIC50” value is more than 7.
For the compound `COc1ccc(Cn2c(=O)n3ncnc3c3c4c(sc32)CN(Cc2nccn2C)CCC4)cc1` [Example 144], the “PDE1B pIC50” value is more than 7.
Regarding `COc1ccc(Cn2c(=O)n3ncnc3c3c4c(sc32)CN(Cc2ncccn2)CCC4)cc1` [Example 145], the “PDE1B pIC50” value is more than 7.
Regarding `COc1ccc(Cn2c(=O)n3ncnc3c3c4c(sc32)CN(Cc2ccccn2)CCC4)cc1` [Example 146], the “PDE1B pIC50” value is more than 7.
With `COc1ccc(Cn2c(=O)n3ncnc3c3c4c(sc32)CN(CC2CCOCC2)CCC4)cc1` [Example 147], the “PDE1B pIC50” value is more than 7.
In the case of `COc1ccc(Cn2c(=O)n3ncnc3c3c4c(sc32)N(CC2CCOCC2)CCC4)cc1` [Example 148], the “PDE1B pIC50” value is more than 7.
As for `COc1ccc(Cn2c(=O)n3ncnc3c3c4c(sc32)N(CC2CCCOC2)CCC4)cc1` (centres unmarked) [Example 149], the “PDE1B pIC50” value is more than 7.
With `COc1ccc(Cn2c(=O)n3ncnc3c3c4c(sc32)N(CC2CCOC2)CCC4)cc1` (centres unmarked) [Example 150], the “PDE1B pIC50” value is reported as more than 7.
